Measurements: patent US5482923A, “Heparin neutralization with platelet factor 4 fragments” (Repligen Corporation, priority 1993, dated 1996)
“Also recorded” adds a separate entry of the source.

Columns and labels:
thrombin = experiment: Prevention of heparin inhibition of thrombin, conditions similar to the Factor Xa experiments; type: biochemical; conditions: for ability to prevent heparin inhibition of thrombin: in vitro; for prevention of heparin inhibition of thrombin: 1 μM
Excerpt: (§1) The lysine rich region of PF4 (residues 61-66) is also the domain associated with the binding of heparin by PF4. Heparin is known to play a role in modulating anglogenesis, which can also be affected by protamine, another well characterized heparin-binding protein. To assess the ability of PF4-based synthetic peptides to bind heparin, we assayed the activity of coagulation-cascade enzymes which are inhibited by heparin. The Factor Xa assay used here has previously been described in Denton et al., Biochem. J., 209:455-460 (1983).
In experiments carried out under conditions similar to the Factor Xa experiments, thrombin was inhibited 99% by 0.25 units of heparin.

Factor Xa = Factor Xa assay: prevention of heparin inhibition of Factor Xa; type: biochemical; conditions: for ability to prevent heparin inhibition of Factor Xa: in vitro; for restoration of Factor Xa activity: low concentrations
Excerpt: as §1
PF4 isolated from platelets and recombinant E. coli cells were compared for their abilities to prevent heparin inhibition of Factor Xa (essential for the production of thrombin) in vitro.
The abilities of protamine and rPF4 to prevent heparin-inhibition of the coagulation enzyme Factor Xa were compared. The details of the assay are described by Denton et al, 1983, Biochem. J. 209:455. In the Factor Xa assay, 0.5 units of heparin inhibited enzymatic activity almost 90%.
Similar studies and results may be obtained using certain fragments of PF4 or rPF4 that include the heparin binding region, residues 61-66.

normal human plasma = experiment: Neutralization of heparin in human plasma (APTT); conditions: 1 unit/ml of heparin; for restoring the APTT to its heparin-free level: added during the incubation before activated thromboplastin
Excerpt: Neutralization of heparin in human plasma was also examined. The activated partial thromboplastin time (APTT) of normal human plasma was increased from its base level of approximately 30 seconds to 195 seconds by the addition of 1 unit/ml of heparin.

Sprague Dawley rats [1] = experiment: In vivo heparin neutralization in rats (APTT); design: species or system rat; conditions: for APTT after neutralizing agent: heparin 1 unit/g at t=0, agent at t=2 min, protamine sulfate 1 ug/g, PF4 7.5 ug/g, read at t=10 min
Experimental: (§2) In Vivo experiments were performed on rats to compare the heparin neutralizing activity of protamine and PF4 and to investigate the effect of PF4 on platelet and white blood cell count.
(§3) Sprague Dawley rats (225 g) were anesthetized with pentobarbital, the trachea was intubated, and the right femoral vein and carotid artery were cannulated. The intravenous infusion of heparin was followed by infusion of either protamine or rPF4. Arterial blood samples were taken prior to and immediately after heparin infusion and at several time points following the infusion of the neutralizing agent. Controls were conducted with Ringer's solution in place of heparin and the experimental agents. Samples were used for the following determinations: clotting time, platelet count, and white blood cell count.
(§4) Referring to FIGS. 1 and 2, data are shown from a typical experiment comparing the platelet count, white blood cell count and the APTT in rats when injected with heparin followed by protamine sulfate (FIG. 1) and when injected with heparin followed by rPF4 (FIG. 2). In these Figs., heparin was injected at t=0 and either protamine sulfate or rPF4 injected two minutes thereafter (t=2 minutes). The dosages used were: heparin 1 unit/g animal wt.; protamine sulfate 1 ug/g animal wt.; and PF4 7.5 ug/g animal wt.
Referring now to FIGS. 3 to 5, statistical bar graph data are shown comparing APTT, platelet count, (PC) and white blood cell (WBC) count in rats injected with a control solution, Ringers solution (FIG. 3), injected with heparin followed by protamine sulfate (FIG. 4) and injected with heparin followed by rPF4 (FIG. 5). […]
Samples A were taken before injection; samples B, 2 min after heparin injection; samples C, 10 min after heparin and 8 min after protamine sulfate injection; and samples D, 18 min after heparin injection. Data represent mean values and S.E.M. from experiments except that white blood cells and platelets were counted only in 3 samples taken at 2 and at 18 min after heparin injection. […]

Sprague Dawley rats [2] = experiment: In vivo effect on platelet count, white blood cell count and hematocrit in heparinized rats; design: species or system rat; conditions: for platelet count, % of initial: after heparin followed by neutralizing agent, FIGS. 4 and 5; for hematocrit levels: conditions as for FIGS. 1 and 2; for change of platelet and white blood cell counts: heparin 100 units/100 g followed by protamine sulfate 100 μg/100 g or rPF4 7.5 μg/g; for white blood cell count / platelet count: t=10 minutes, 8 min after agent, protamine sulfate 1 ug/g, PF4 7.5 ug/g; for white blood cell count: protamine sulfate group over 5 at t=0; for platelet count: t=0: protamine sulfate over 800, rPF4 700
Experimental: as §2, §3, §4
Experiments were also conducted to investigate hematocrit levels under conditions as described with respect to FIGS. 1 and 2. No change in hematocrit levels were observed when either PF4 or protamine were used for heparin neutralization.
Referring now to FIGS. 3 to 5, statistical bar graph data are shown comparing APTT, platelet count, (PC) and white blood cell (WBC) count in rats injected with a control solution, Ringers solution (FIG. 3), injected with heparin followed by protamine sulfate (FIG. 4) and injected with heparin followed by rPF4 (FIG. 5). The data included control rats, five rats injected with heparin followed by protamine sulfate and two rats injected with heparin followed by rPF4.
Samples A were taken before injection; samples B, 2 min after heparin injection; samples C, 10 min after heparin and 8 min after protamine sulfate injection; and samples D, 18 min after heparin injection. Data represent mean values and S.E.M. from experiments except that white blood cells and platelets were counted only in 3 samples taken at 2 and at 18 min after heparin injection. […] The decrease was statistically significant (p<0.01) as compared to samples obtained before heparin injection.
Data represent mean values and S.E.M. from 2 experiments for samples taken at times A-D as indicated in the discussion above with respect to FIG. 4.

Sprague Dawley rats [3] = experiment: as above; design: species or system rat; conditions: low doses of rPF4 (150 μg/100g); three experiments

Substance	ability to prevent heparin inhibition of thrombin (thrombin)	ability to prevent heparin inhibition of Factor Xa (Factor Xa)	inhibition of Factor Xa enzymatic activity (Factor Xa; 0.5 units of heparin) [%]	activated partial thromboplastin time (APTT) (normal human plasma; base level approximately 30 seconds) [s]	inhibition of thrombin (thrombin; 0.25 units of heparin) [%]	restoration of Factor Xa activity (Factor Xa; 0.5 units of heparin)	APTT after neutralizing agent (Sprague Dawley rats [1])	restoring the APTT to its heparin-free level (normal human plasma)	platelet count, % of initial (Sprague Dawley rats [2]) [%]	WBC count (Sprague Dawley rats [2]; after heparin followed by protamine sulfate, FIG. 4)	hematocrit levels (Sprague Dawley rats [2])	respiratory problems (Sprague Dawley rats [2]; heparin 1 unit/g followed by protamine sulfate 1 ug/g)	change of platelet and white blood cell counts (Sprague Dawley rats [2])	white blood cell count (Sprague Dawley rats [2])	platelet count (Sprague Dawley rats [2])	prevention of heparin inhibition of thrombin (thrombin; 0.25 units of heparin)	molar dose responses, rPF4 compared with protamine (thrombin; 0.25 units of heparin)	preventing Factor Xa inhibition, compared with protamine (Factor Xa; concentrations greater than 1 μM, 0.5 units of heparin)	neutralization of the anticoagulant effect of heparin (Sprague Dawley rats [1]; low doses of rPF4 (150 μg/100g), three experiments)	effect on platelets and white blood cells (Sprague Dawley rats [3])
C-13: C-13 peptide of PF4, a PF4-based synthetic peptide (PLYKKIIKKLLES; UniProt P02776 89-101, looked up, fragment)	unable to prevent the inhibition of thrombin even at concentrations ten times that of an effective level of rPF4	–	–	–	–	–	–	–	–	–	–	–	–	–	–	–	–	–	–	–
C-41: The 41 amino acid C-terminal peptide of PF4 (IKAGPHCPTAQLIATLKNGRKICLDLQAPLYKKIIKKLLES; UniProt P02776 61-101, looked up, fragment)	prevented heparin inhibition less effectively	prevented heparin inhibition less effectively; also recorded: demonstrated the ability to neutralize heparin in vitro	–	–	–	–	–	–	–	–	–	–	–	–	–	–	–	–	–	–
heparin [reference compound]	–	–	~90	195	99	–	–	–	–	–	–	–	–	–	–	–	–	–	–	–
protamine	able to prevent the heparin inhibition of thrombin and Factor Xa at approximately equimolar concentrations	able to prevent the heparin inhibition of thrombin and Factor Xa at approximately equimolar concentrations	–	–	–	partially restored Factor Xa activity	decrease in the APTT to approximately normal levels after about 10 minutes	equally effective in restoring the APTT to its heparin-free level	48±12.2	decreased	No change	These rats also had respiratory problems	significant decrease of white blood cell count and platelet count; also recorded: drop in platelet and white blood cell counts	less than 3 ×10^3 /μl	less than 500 ×10^3 /μl	completely prevented heparin inhibition	no significant difference in their molar dose responses	–	–	–
rPF4: Recombinant native sequence human platelet factor 4, 70 residues, produced in E. coli as a fusion protein and cleaved with CNBr	able to prevent the heparin inhibition of thrombin and Factor Xa at approximately equimolar concentrations	able to prevent the heparin inhibition of thrombin and Factor Xa at approximately equimolar concentrations	–	–	–	partially restored Factor Xa activity	restoration of normal APTT levels	equally effective in restoring the APTT to its heparin-free level	89±4.9	–	No change	–	did not lead to the extensive depletion of platelet and white blood cells; also recorded: did not produce a statistical decrease in platelet and white blood count	about 4 ×10^3 /μl	about 500 ×10^3 /μl	completely prevented heparin inhibition	no significant difference in their molar dose responses	clearly more effective in preventing Factor Xa inhibition	partially neutralized	no effect on platelets and white blood cells
